# Data from US20170189376A1, “BUTYROYLOXYMETHYL DIETHYL PHOSPHATE COMPOUNDS AND USES THEREOF” (MOR RESEARCH APPLICATIONS LTD., priority 2016, published 2017).
# Like-named read-outs stand apart in the source and are kept apart here.
# How the values were obtained:
# U2OS GFP-reporter cells = assay: HR activity assay, U2OS GFP-reporter cells; format: cell-based; settings: 1 mM AN-7 for 48 h
# Description: U2OS cells with the linearized HRsub reporter (Puget et al. DNA Repair 4 (2005) 149-161) were transfected with: SceI-expression vector pCBASce; pCBA vector without Sce-I; and GFP control vector, each one separately with FuGENE 6 transfection reagent (Promega). 24 h later 2×10̂5 cells/ml were seeded in 35 mm plates and 6 h later were treated with 1 mM AN-7 for 48 hr. Cells were washed with PBS then harvested with Trypsin solution, neutralized with PBS+10% FBS, centrifuged in 1200 rpm for 10 min, suspended with PBS+10% FBS and GFP-positive cells were quantified by flow cytometry analysis. Cells excitation was done with 488nm laser; the reading of FL1 values was done in 530 nm. Percent of cells with repaired DSB induced by Sce-I via HR are presented as percent of GFP positive cells which are calculated as follow: (%GFP of cells expressing Sce-I pCBASce)−(%GFP of cells expressing empty pCBASce)/(%GFP of cells expressing GFP control vector).
# The role of AN-7 in suppressing directly the repair of DSBs, was verified. To this end, one of the machinery for repairing DSBs, the HR repair machinery, was tested. […] The U2OS-GFP cells were transfected with I-SceI plasmid for 24 hours, treated then with AN-7 for another 48 h and then analyzed for GFP expression in FACS analysis. […]
# HDAC1 = assay: Western blot of HDAC1 protein expression in MF/SS cell lines; format: cell-based, human; settings: MyLa and Hut78, SAHA 10 μM or AN-7 300 μM
# Acetylated H3 = assay: Western blot of acetylated H3 in nuclear lysate of MF/SS cell lines; settings: MyLa and Hut78, SAHA 10 μM or AN-7 300 μM
# Description: Cells (5×10^6) were suspended in 300 μL of cytoplasmic buffer (HEPES 10 mM, KCl 10 mM, EDTA 1 mM, EGTA 1 mM, DTT 1 mM). After 20 min of incubation on ice, the mixture was passed 5 times through a 25-G syringe and then centrifuged briefly to obtain the cytoplasmic supernatant.
# The nuclear pellet was suspended in 40-60 μL of nuclear buffer (cytoplasmic buffer+10% glycerol), incubated with shaking at 4° C. for 15 min, and centrifuged. The supernatant was collected as a nuclear fraction.
# Cell extracts were separated by SDS-polyacrylamide gel electrophoresis (SDS-PAGE), transferred to a nitrocellulose membrane, and subjected to immunoblot with primary and secondary antibodies, as listed in table 1.
# NPBL = assay: MTT-based viability assay, normal PBL (NPBL); settings: for IC50: Normal PBL
# Description: (§5) Peripheral blood was diluted 1:3 in sterile phosphate-buffered saline (PBS). Lymphoprep was added in the same blood volume with a Pasteur pipette, and the sample was centrifuged. PBL were collected from the white median interphase, rinsed twice with PBS, and suspended in RPMI medium with 10 mM HEPES to 2×10^6 cells/mL.
# (§6) MyLa cells (10^4), Hut78 cells (5×10^3), SPBL and NPBL (10^5) were seeded in triplicate in 96-well plates. The PBL were activated with PHA 40 μg/10^6 cell for 24 h before the experiment. […] The cells were then placed in a humidified incubator for 72 h. […] The MTT reagent was added to a final concentration of 0.5 mg/mL, and the cells were incubated for an additional 4 h. Thereafter, 0.1N HCl in isopropanol was added, and cell viability was determined using an ELISA reader (PowerWaveX, BioTek, Winooski, Vt., USA) at a 570 nm wavelength with background subtraction at 630-690 nM.
# (§7) Viability and apoptosis curves were based on the averages of at least 3 independent experiments. The standard error (SE) was calculated for each group as follows: SE=standard deviation/√n, where n is number of values in the group. […] Significant differences in selectivity among groups were analyzed by comparing the IC50 values using two-tailed unpaired t-test using Excel or by comparing the differential effects for all the dose response titrations using ANOVA with repeated measures.
# (§8) NPBL were treated at same molar ratio as SPBL.
# MyLa cells [1] = assay: MTT-based viability assay, MyLa cells
# Description: as §6, §7
# MyLa cells [2] = assay: cells; format: cell-based, human; settings: trypan blue, column group printed 'AN-7', MyLa
# [3] = test system: p-KAP1, γH2AX in MyLa cells; assay: Western blot of p-KAP1 and γH2AX, MyLa cells; format: cell-based, human; settings: 1 mM AN-7 2 h, 1 μM Dox 1 h, or AN-7 1 h followed with Dox 1 h
# Description: (§1) Cell fraction—3×10^6cells were suspended in 100 μl hypotonic buffer (HEPES 10 mM, KCl 5 mM, MgCl2 1.5 mM, DTT 1 mM, NP-40 1%), incubated for 15 min in ice, centrifuged and the supernatant fraction was subjected to western blot of pKAP1 and actin. The sediment was washed once with hypotonic buffer followed by suspension in 100 μl of hypertonic buffer (HEPES 10 mM, NaCl 500 mM, MgCl2 1.5 mM, DTT 1 mM, NP-40 1%), incubated for 15 min in ice, centrifuged, supernatant was removed and the sediment was boiled, vortexed for 10 min at 95° C. with sample buffer ×3 for 3 times and subjected to western blot of γH2AX.
# (§2) Whole cells extract—Cells were suspended in lysis buffer (Tris-HCl 50 mM, NaCl 150 mM, NP-40 0.5%), incubated for lh on ice, centrifuged and the supernatant was collected. Protease and Phosphatase inhibitors were added to all buffers at a 1:100 dilutions. […] Bands were visualized by Odyssey Infrared Imaging System and the bands intense were normalized to actin.
# (§3) Next, cells were fractionated and fraction lysate were subjected to western blot of phosphorylated KAP1 (p-KAP1), γH2AX and actin.
# [4] = test system: NBS1, Rad51, Mre11, DNA-PK, Ku70 in Hut78 cells; assay: Western blot of DSB repair proteins, Hut78 cells; format: cell-based, homo sapiens; settings: Hut78, 18 and 24 h post treatment
# Description: as §2
# (§4) To address whether AN-7 interfere in DSBs repair by regulating the expression of DSBs repair proteins, Immunoblot was applied for those proteins. MyLa and Hut78 cells were treated as previously described and subjected to western blot of DSBs repair proteins.
# [5] = test system: caspase 3, PARP, P21 and Bax in MF/SS cell lines; assay: Western blot of pro-apoptotic proteins in MF/SS cell lines; format: cell-based, human; settings: MyLa and Hut78, SAHA 10 μM or AN-7 300 μM
# Source text: However, there was a stronger signal in response to SAHA.
# [6] = test system: Sezary syndrome Peripheral blood lymphocytes SPBL; assay: MTT-based viability assay, Sezary PBL (SPBL); settings: for IC50: Sezary PBL
# Description: as §5, §6, §7, §8
# [7] = test system: p-KAP1, γH2AX in Hut78 cells; assay: Western blot of p-KAP1 and γH2AX, Hut78 cells; format: cell-based, homo sapiens; settings: 0.5 mM AN-7 2 h, 0.5 μM Dox 1 h, or AN-7 1 h followed with Dox 1 h
# Description: as §1, §2, §3
# Hut78 cells [8] = format: cell-based, homo sapiens; settings: trypan blue; for IC50: column group printed 'SAHA'
# [9] = test system: NBS1, Rad51, Mre11, DNA-PK, Ku70 in MyLa cells; assay: Western blot of DSB repair proteins, MyLa cells; format: cell-based, human; settings: 24 and 48 h post treatment
# Description: as §2, §4
# SPBL = assay: FACS annexin V/PI apoptosis ex vivo, PBL of SS patients; format: cell-based, human; settings: PBL from 2 SS patients, SAHA 4 μM or AN-7 200 μM, 48 h
# Source text: The cells were then stained with annexin V and PI and analysed by FACS.
# MyLa cells [10] = assay: FACS analysis with annexin V and PI staining (apoptosis), MyLa cells
# Description: (§9) The cells (2.5×10^6 cells/mL) were washed in PBS and binding buffer and were resuspended in binding buffer, and of fluorescein isothiocyanate-conjugated annexin V (5 μL) was added to a 100 μL cell suspension for 10-15 min. Incubation was performed at room temperature under light-protected conditions. The cells were then washed in binding buffer and were resuspended in the binding buffer and propidium iodide (PI) (5 μL) was added. The samples were analyzed by flow cytometry (FACS Calibur 4.1.6, Becton Dickinson): fluorescein-labeled annexin V at a 530 nm wavelength, and PI at a 585 nm wavelength. The percentage of cells was calculated by their distribution in a fluorescence dot plot generated with FCS Express 4 software (De Novo Software, Los Angeles, Calif., USA). Early (annexin V-positive) and late (annexin V+PI-positive) apoptotic cells were summed to yield the total number of apoptotic cells.
# Hut78 cells [11] = assay: FACS analysis with annexin V and PI staining (apoptosis), Hut78 cells
# Description: as §9
# Hut78 cells [12] = assay: MTT-based viability assay, Hut78 cells
# Description: as §6, §7
# [13] = read-out: IC50 single treatment (HDACI), MTT 72 h, Table 4
# [14] = long exposure 24 h, read-out: IC50 Long exposure
smiles,measurement,setting,value
"CCCC(=O)OCOP(=O)(OCC)OCC [AN-7, Butyroyloxymethyl diethyl phosphate]",proportion of cells expressing GFP (frequency of HR repair of I-SceI-induced DSBs),U2OS GFP-reporter cells,significantly reduce
same,HDAC1 expression level,HDAC1,downregulated
same,expression of acetylated H3,Acetylated H3,induced
same,IC50,"NPBL; MTT, 72 h",200 ± 2.8 µM
same,NPBL survival at high doses,NPBL; high doses lethal to Hut78 and MyLa cells,50%
same,IC50,NPBL; [13],191 ± 26.1 µM
same,IC50,"MyLa cells [1]; MyLa cells, MTT, 72 h",120 ± 5.3 µM
same,selectivity vs NPBL by dose-response titration,"MyLa cells [1]; MyLa vs NPBL, ANOVA with repeated measures",significantly selective
same,Selectivity index (SI),MyLa cells [1]; SI=IC50 NPBL/IC50 MyLa,1.7
same,IC50,"MyLa cells [1]; read-out: IC50 single treatment (HDACI), MyLa, MTT 72 h, Table 4",81.7 ± 4.4 µM
same,IC50,"MyLa cells [2]; 4 h then washout and 44 h, read-out: IC50 Short exposure",141 ± 9.8 µM
same,IC50,MyLa cells [2]; [14],159 ± 34.8 µM
same,induction and clearance of p-KAP1,[3],did not affect the expression of p-KAP1 and γH2AX
same,induction and clearance of γH2AX,[3],did not affect the expression of p-KAP1 and γH2AX
same,expression of NBS1 and DNA-PK,[4],did not affect the expression of DSB repair proteins
same,expression of pro-apoptotic proteins (western blot),[5],cleavage of caspase 3 and poly ADP-ribose polymerase (PARP) and the production of P21 and Bax
same,Selectivity index (SI),[6]; SI=IC50 NPBL/IC50 Sezary PBL,3.56
same,selectivity of induced death vs NPBL,"[6]; SPBL vs NPBL, by IC50 values",selective death
same,IC50,"[6]; MTT, 72 h",128 µM
same,lethality of high doses to SPBL,"[6]; high doses, MTT 72 h",more lethal to SPBL than high doses of SAHA
same,IC50,[6]; [13],128 ± 5.2 µM
same,induction and persistence of p-KAP1 and γH2AX,[7],did not affect the expression of p-KAP1 and γH2AX
same,IC50 short exposure/IC50 long exposure,Hut78 cells [8],1.3
same,IC50,"Hut78 cells [8]; 4 h then washout and 20 h, read-out: IC50 Short exposure",88 ± 4.6 µM
same,IC50,Hut78 cells [8]; [14],67 ± 2.5 µM
same,"expression of NBS1, Mre11, Rad51 and DNA-PK",[9],did not affect the expression of DSB repair proteins
same,apoptosis induction in SPBL ex vivo,SPBL,directed more SPBL cells into apoptotic death than SAHA
same,apoptosis,MyLa cells [10]; SAHA 10 μM or AN-7 300 μM,about 60%
same,apoptosis after short exposure compared to long exposure (fold less),MyLa cells [10]; annexin V + PI,no significant difference
same,apoptosis after short exposure compared to long exposure (fold less),"Hut78 cells [11]; Hut78, annexin V + PI",no significant difference
same,apoptosis,"Hut78 cells [11]; Hut78, SAHA 10 μM or AN-7 300 μM",about 60%
same,IC50,"Hut78 cells [12]; Hut78 cells, MTT, 72 h",59 ± 4.3 µM
same,selectivity vs NPBL by dose-response titration,"Hut78 cells [12]; Hut78 vs NPBL, ANOVA with repeated measures",significantly selective
same,Selectivity index (SI),Hut78 cells [12]; SI=IC50 NPBL/IC50 Hut78,3.4
same,IC50,"Hut78 cells [12]; read-out: IC50 single treatment (HDACI), Hut78, MTT 72 h, Table 4",59 ± 4.3 µM
